From patent US8759051B2, “Control of contaminant microorganisms in fermentation processes with peroxygen-releasing compounds” (E I du Pont de Nemours and Company, priority 2010, dated 2014)

System: lactic acid bacteria (LAB)
Assay: Inactivation of LAB in molasses at pH 4.2 and 5.4 (Examples 2 and 3)
Type: cell-based
Conditions: for reduction in the amount of LAB: 2 hours; for reduction in the levels of LAB: 2-hour
Method: Molasses (B&G Foods, Inc., Roseland, N.J.) was diluted 1 to 3.1 with water and sterilized as in Example 1. The prepared molasses was then divided into two lots and pH-adjusted using sulfuric acid to approximately pH 4.2 and 5.4, respectively. Cultures of LAB were prepared as in Example 1 and inoculated into the molasses to give approximately 1×10^6 CFU/ml. Sodium percarbonate (Alfa Aesar, Ward Hill, Mass.) was added to give 250, 500, and 750 ppm. […] Levels of LAB were enumerated by dilution and plating onto the surface of MRS agar followed by incubation at 32° C. LAB were enumerated at approximately 2 and 24 hours after the addition of sodium percarbonate.
Molasses was prepared as above and adjusted to pH 4.2 and 5.4 using sulfuric acid. Cultures of lactic acid bacteria were prepared as indicated in Example 1 and inoculated into the molasses to give approximately 10E6 CFU/ml. Levels of bacteria were confirmed by plating serial dilutions of the inoculated molasses onto the surface of MRS agar plates as in Example 1. Calcium peroxide was added at the levels indicated. Bacterial levels were enumerated at 2 and 24 hours following addition as described above.

## O=C([O-])[O-].O=C([O-])[O-].OO.OO.OO.[Na+].[Na+].[Na+].[Na+] [Sodium percarbonate, sodium percarbonate]
Molasses at pH 4.2, 250 ppm (69 ppm as H2O2), hour 2
  CFU/ml LAB at hour indicated: 7.85 × 10^5 CFU/ml
Molasses at pH 4.2, 250 ppm (69 ppm as H2O2), hour 24
  CFU/ml LAB at hour indicated: 8.75 × 10^4 CFU/ml
Molasses at pH 4.2, 500 ppm (138 ppm as H2O2), hour 2
  CFU/ml LAB at hour indicated: 8.40 × 10^5 CFU/ml
Molasses at pH 4.2, 500 ppm (138 ppm as H2O2), hour 24
  CFU/ml LAB at hour indicated: 7.90 × 10^6 CFU/ml
Molasses at pH 4.2, 750 ppm (207 ppm as H2O2), hour 2
  CFU/ml LAB at hour indicated: 3.10 × 10^5 CFU/ml
Molasses at pH 4.2, 750 ppm (207 ppm as H2O2), hour 24
  CFU/ml LAB at hour indicated: 1.50 × 10^3 CFU/ml
Molasses at pH 5.4, 250 ppm (69 ppm as H2O2), hour 2
  CFU/ml LAB at hour indicated: 3.95 × 10^5 CFU/ml
Molasses at pH 5.4, 250 ppm (69 ppm as H2O2), hour 24
  CFU/ml LAB at hour indicated: 7.50 × 10^1 CFU/ml
Molasses at pH 5.4, 500 ppm (138 ppm as H2O2), hour 2
  CFU/ml LAB at hour indicated: 3.85 × 10^4 CFU/ml
Molasses at pH 5.4, 500 ppm (138 ppm as H2O2), hour 24
  CFU/ml LAB at hour indicated: 1.50 × 10^1 CFU/ml
Molasses at pH 5.4, 750 ppm (207 ppm as H2O2), hour 2
  CFU/ml LAB at hour indicated: 2.80 × 10^4 CFU/ml
Molasses at pH 5.4, 750 ppm (207 ppm as H2O2), hour 24
  CFU/ml LAB at hour indicated: <10 CFU/ml
Molasses at pH 5.4, 750 ppm (207 ppm as H2O2), hour 24, listed as sodium percarbonate
  CFU/ml LAB at hour indicated: below the detection limit
Molasses pH 4.2, 250 ppm sodium percarbonate
  reduction in the amount of LAB: approximately 1 log
Molasses pH 4.2, 500 ppm sodium percarbonate
  reduction in the amount of LAB: approximately 1 log
Molasses pH 4.2, 750 ppm sodium percarbonate
  reduction in the amount of LAB: approximately 1 log
Molasses pH 4.2, 750 ppm sodium percarbonate, 24 hour
  reduction in the number of LAB: more than 3 log units
Molasses pH 5.4, 250 ppm sodium percarbonate, 24-hour
  reduction in the level of LAB: ~6 log
Molasses pH 5.4, 500 ppm sodium percarbonate
  reduction in the levels of LAB: approximately 2 log
Molasses pH 5.4, 750 ppm sodium percarbonate
  reduction in the levels of LAB: approximately 2 log
